IC50 and EC50 data for 53 compounds are collected here from patent US20240327334A1, “Covalent Inhibitors As Antiviral Agents” (Enanta Pharmaceuticals, Inc., priority 2022, published 2024).

The target of assay [1] is SARS-CoV-2 Papain-like (PLpro) protease (Severe acute respiratory syndrome coronavirus 2, UniProt P0DTD1). Kind of assay: SARS-CoV-2 Papain-like (PLpro) protease biochemical enzyme inhibition assay (ubiquitin-fluorophore substrate, Ub-R110). To be noted: Ub-R110 substrate; run in duplicate; read-out: PLpro IC50.
Another assay concerns SARS-CoV-2 replicon. The assay is described as follows: microbe, parasite or virus in culture. In kind it is cell-based. Conditions: Severe acute respiratory syndrome coronavirus 2, Huh-7.

A value given as a limit tells only on which side of the number the result lay.

Turning to `COC(=O)/C=C/CNC(=O)C(=O)NCc1ccccc1C(=O)NC1(c2cccc3ccccc23)CC1` [Example 4], the IC50 in assay [1] is less than 100 nM. Besides, in the assay with SARS-CoV-2 replicon, the EC50 is less than 1000 nM.

`C[C@@H](NC(=O)c1ccccc1CNC(=O)C(=O)NCC#N)c1cccc2ccccc12` [Example 6]: the IC50 in assay [1] is less than 100 nM. Also, the EC50 in the assay on SARS-CoV-2 replicon lay in the range of 1000 to 10000 nM. Consider `COC(=O)C#CCCNC(=O)C(=O)NCc1ccccc1C(=O)N[C@H](C)c1cccc2ccccc12` [Example 8], for which, in assay [1], the IC50 is less than 100 nM. Further, the EC50 in the assay on SARS-CoV-2 replicon was less than 1000 nM. On to `C=CC(=O)NNC(=O)C(=O)NCc1ccccc1C(=O)N[C@H](C)c1cccc2ccccc12` [Example 22], for which, in assay [1], the IC50 lay within 100 to 1000 nM. In addition, in the assay with SARS-CoV-2 replicon, the half-maximal effective concentration (EC50) is more than 10000 nM. For `COC(=O)/C(C)=C/CNC(=O)C(=O)NCc1ccccc1C(=O)N[C@H](C)c1cccc2ccccc12` [Example 24] the same measures were less than 100 nM and less than 1000 nM.

As for `N#CCNC(=O)C(=O)NCc1ccccc1C(=O)NC1(c2cccc3ccccc23)CC1` [Example 25], the IC50 in assay [1] was less than 100 nM. In addition, the EC50 with SARS-CoV-2 replicon was less than 1000 nM. On the same counts, the results for `COC(=O)/C=C/CNC(=O)C(=O)NCc1cccc(F)c1C(=O)N[C@H](C)c1cccc2ccccc12` [Example 28] are less than 100 nM and less than 1000 nM. On the same counts, the results for `C[C@@H](NC(=O)c1c(F)cccc1CNC(=O)C(=O)NCC#N)c1cccc2ccccc12` [Example 29] are less than 100 nM and 1000 to 10000 nM. As to `CC(C#N)NC(=O)C(=O)NCc1ccccc1C(=O)NC1(c2cccc3ccccc23)CC1` (stereo not drawn) [Example 33], in assay [1], the IC50 was in the range of 100 to 1000 nM. The same compound had an EC50 with SARS-CoV-2 replicon of more than 10000 nM. On the same counts, the results for `C#CCNC(=O)C(=O)NCc1ccc(C#N)cc1C(=O)NC1(c2ccc(F)c3ccccc23)CC1` [Example 53] are less than 100 nM and less than 1000 nM. For `N#CCNC(=O)C(=O)NCc1ccccc1C(=O)NC1(c2cccc3cc(F)ccc23)CC1` [Example 54] the same measures were less than 100 nM and less than 1000 nM. On the same counts, the results for `N#CCNC(=O)C(=O)NCc1ccc(C#N)cc1C(=O)NC1(c2ccc(F)c3ccccc23)CC1` [Example 55] are less than 100 nM and 1000 to 10000 nM.

`C#CCNC(=O)C(=O)NCc1ccccc1C(=O)NC1(c2cccc3cc(F)ccc23)CC1` [Example 56]: the IC50 in assay [1] was less than 100 nM. Moreover, in the assay with SARS-CoV-2 replicon, the concentration giving a half-maximal response (EC50) is less than 1000 nM.

As for `C#CCNC(=O)C(=O)NCc1ccccc1C(=O)NC1(c2cc(-c3cn(C4CC4)nn3)cc(C(F)(F)F)c2)CC1` [Example 59], in assay [1], the 50% inhibitory concentration (IC50) was less than 100 nM. This compound also registered a 50% effective concentration (EC50) in the assay on SARS-CoV-2 replicon of less than 1000 nM.

As for `C#CCNC(=O)C(=O)NCc1ccc(C(=O)N2CC(F)(F)C2)cc1C(=O)NC1(c2ccc(F)c3ccccc23)CC1` [Example 61], in assay [1], the IC50 was less than 100 nM. The compound further came in with a half-maximal effective concentration (EC50) in the assay on SARS-CoV-2 replicon of less than 1000 nM. For `N#CCNC(=O)C(=O)NCc1ccc(C(=O)N2CC(F)(F)C2)cc1C(=O)NC1(c2ccc(F)c3ccccc23)CC1` [Example 62] the same measures were less than 100 nM and 1000 to 10000 nM. For `C#CCNC(=O)C(=O)NCc1ccccc1C(=O)NC1(c2cc(C#C)cc(C(F)(F)F)c2)CC1` [Example 69], the IC50 in assay [1] was less than 100 nM. This compound had an EC50 with SARS-CoV-2 replicon of less than 1000 nM. On the same counts, the results for `C#Cc1cc(C(F)(F)F)cc(C2(NC(=O)c3ccccc3CNC(=O)C(=O)NCC#N)CC2)c1` [Example 70] are 100 to 1000 nM and less than 1000 nM.

Regarding `C#CCNC(=O)C(=O)NCc1ccccc1C(=O)NC1(c2cc(Cl)cc(-c3cnc(C(F)(F)F)nc3)c2)CC1` [Example 71], the IC50 in assay [1] was less than 100 nM. Also, the EC50 in the assay on SARS-CoV-2 replicon is less than 1000 nM. Turning to `C#CCNC(=O)C(=O)NCc1ccccc1C(=O)NC1(c2cc(Cl)cc(-c3cnc(C4CC4)nc3)c2)CC1` [Example 73], the IC50 in assay [1] was less than 100 nM. In addition, the EC50 in the assay on SARS-CoV-2 replicon was less than 1000 nM.

As for `N#CCNC(=O)C(=O)NCc1ccccc1C(=O)NC1(c2cc(Cl)cc(-c3cnc(C4CC4)nc3)c2)CC1` [Example 74], the IC50 in assay [1] was less than 100 nM. This compound also displayed an EC50 in the assay on SARS-CoV-2 replicon of 1000 to 10000 nM. On the same counts, the results for `C#CCNC(=O)C(=O)NCc1ccccc1C(=O)NC1(c2cc(Cl)cc(C(=O)N(C)c3ccc(F)cc3)c2)CC1` [Example 77] are less than 100 nM and 1000 to 10000 nM. For the compound `CN(C(=O)c1cc(Cl)cc(C2(NC(=O)c3ccccc3CNC(=O)C(=O)NCC#Cc3nccs3)CC2)c1)c1ccc(F)cc1` [Example 79], the IC50 in assay [1] was less than 100 nM. In the assay on SARS-CoV-2 replicon, the EC50 was less than 1000 nM.

For `O=C(NCC#Cc1nccs1)C(=O)NCc1ccccc1C(=O)NC1(c2cc(F)cc(-c3cnn(C(F)F)c3)c2)CC1` [Example 81], in assay [1], the 50% inhibitory concentration (IC50) is less than 100 nM. In the assay with SARS-CoV-2 replicon, the half-maximal effective concentration (EC50) is less than 1000 nM. For `O=C(NCC#Cc1nccs1)C(=O)NCc1ccccc1C(=O)NC1(c2cc(F)cc(C(=O)Nc3ccc(F)cc3F)c2)CC1` [Example 82], the IC50 in assay [1] was less than 100 nM. Further, the EC50 in the assay with SARS-CoV-2 replicon is less than 1000 nM. On the same counts, the results for `O=C(NCC#Cc1nccs1)C(=O)NCc1ccccc1C(=O)NC1(c2cc(Cl)cc(-c3cnc(C4CC4)nc3)c2)CC1` [Example 83] are less than 100 nM and less than 1000 nM. As to `O=C(NCC#Cc1nccs1)C(=O)NCc1cccnc1C(=O)NC1(c2cc(F)cc(-c3cnn(C4CC4)c3)c2)CC1` [Example 84], in assay [1], the IC50 is less than 100 nM. For the same compound, the EC50 in the assay on SARS-CoV-2 replicon is less than 1000 nM. For `Cc1cc(C#N)ccc1C#CCNC(=O)C(=O)NCc1ccccc1C(=O)NC1(c2ccc3ccccc3c2)CC1` [Example 85] the same measures were less than 100 nM and less than 1000 nM. For `N#Cc1ccc(C#CCNC(=O)C(=O)NCc2ccccc2C(=O)NC2(c3ccc4ccccc4c3)CC2)c(F)c1` [Example 86] the same measures were less than 100 nM and less than 1000 nM. For `N#Cc1cc(F)c(C#CCNC(=O)C(=O)NCc2ccccc2C(=O)NC2(c3ccc4ccccc4c3)CC2)c(F)c1` [Example 87] the same measures were less than 100 nM and less than 1000 nM. Consider `COc1cc(C#N)ccc1C#CCNC(=O)C(=O)NCc1ccccc1C(=O)NC1(c2ccc3ccccc3c2)CC1` [Example 88], for which the IC50 in assay [1] is less than 100 nM. In addition, in the assay on SARS-CoV-2 replicon, the EC50 was less than 1000 nM. Consider `N#CCNC(=O)C(=O)NCc1ccccc1C(=O)NC1(c2cc(C(F)(F)F)nc3ccccc23)CC1` [Example 90], for which the half-inhibitory concentration (IC50) in assay [1] was less than 100 nM. Further, the EC50 in the assay with SARS-CoV-2 replicon is 1000 to 10000 nM. For `N#Cc1ccccc1C#CCNC(=O)C(=O)NCc1ccccc1C(=O)NC1(c2ccc3ccccc3c2)CC1` [Example 94] the same measures were less than 100 nM and less than 1000 nM. With `CC(C)[C@@H](C#Cc1nccs1)NC(=O)C(=O)NCc1ccccc1C(=O)NC1(c2ccc3nn(C)cc3c2)CC1` [Example 97], the IC50 in assay [1] was in the range of 100 to 1000 nM. This compound also had an EC50 in the assay with SARS-CoV-2 replicon of less than 1000 nM. On the same counts, the results for `C[C@@H](C#Cc1ccc(C#N)cc1F)NC(=O)C(=O)NCc1ccccc1C(=O)NC1(c2ccc3nn(C)cc3c2)CC1` [Example 98] are less than 100 nM and less than 1000 nM. Regarding `C[C@@H](C#Cc1ccccc1C#N)NC(=O)C(=O)NCc1ccccc1C(=O)NC1(c2ccc3nn(C)cc3c2)CC1` [Example 99], the IC50 in assay [1] is less than 100 nM. In the assay on SARS-CoV-2 replicon, the EC50 is less than 1000 nM. For `C[C@@H](C#Cc1c(F)cccc1C#N)NC(=O)C(=O)NCc1ccccc1C(=O)NC1(c2ccc3nn(C)cc3c2)CC1` [Example 100] the same measures were less than 100 nM and less than 1000 nM. For the compound `Cn1cc2cc(C3(NC(=O)c4ccccc4CNC(=O)C(=O)NCC#Cc4ccc(C#N)cc4F)CC3)ccc2n1` [Example 103], the IC50 in assay [1] is less than 100 nM. This compound returned an EC50 in the assay on SARS-CoV-2 replicon of less than 1000 nM. On the same counts, the results for `Cn1cc2cc(C3(NC(=O)c4ccccc4CNC(=O)C(=O)NCC#Cc4ccccc4C#N)CC3)ccc2n1` [Example 104] are less than 100 nM and less than 1000 nM. Regarding `C[C@@H](C#Cc1c(F)cc(F)cc1C#N)NC(=O)C(=O)NCc1ccccc1C(=O)NC1(c2ccc3nn(C)cc3c2)CC1` [Example 105], the IC50 in assay [1] was less than 100 nM. This compound gave a concentration for a half-maximal effect (EC50) in the assay with SARS-CoV-2 replicon of less than 1000 nM. On the same counts, the results for `C[C@@H](C#Cc1ccc(C#N)c(F)c1)NC(=O)C(=O)NCc1ccccc1C(=O)NC1(c2ccc3nn(C)cc3c2)CC1` [Example 106] are less than 100 nM and less than 1000 nM. With `C[C@@H](C#Cc1ccc(C#N)cc1Cl)NC(=O)C(=O)NCc1ccccc1C(=O)NC1(c2ccc3nn(C)cc3c2)CC1` [Example 107], in assay [1], the half-inhibitory concentration (IC50) was less than 100 nM. The EC50 in the assay on SARS-CoV-2 replicon is less than 1000 nM.

`C[C@@H](C#Cc1ccc(C#N)cc1C(F)(F)F)NC(=O)C(=O)NCc1ccccc1C(=O)NC1(c2ccc3nn(C)cc3c2)CC1` [Example 109]: in assay [1], the IC50 was less than 100 nM. Further, the half-maximal effective concentration (EC50) in the assay on SARS-CoV-2 replicon is less than 1000 nM. In the case of `N#CN1CC(C(=O)NCc2ccccc2C(=O)NC2(c3cccc4ccccc34)CC2)C1` [Example 114], the IC50 in assay [1] was less than 100 nM. In the assay on SARS-CoV-2 replicon, this compound came in with an EC50 of less than 1000 nM. As to `N#CN1CCC(C(=O)NCc2ccccc2C(=O)NC2(c3cccc4ccccc34)CC2)C1` (stereo not drawn) [Example 115], the IC50 in assay [1] was less than 100 nM. Further, the EC50 with SARS-CoV-2 replicon is less than 1000 nM.

Take `N#CCNC(=O)C(=O)NCc1ccccc1C(=O)NC1(c2cc(C(=O)NC3CC3)cc3ccccc23)CC1` [Example 117]: the IC50 in assay [1] is less than 100 nM. This compound also showed an EC50 in the assay with SARS-CoV-2 replicon of 1000 to 10000 nM.

`COC(=O)/C=C/CNC(=O)C(=O)NCc1c(F)cc(F)cc1C(=O)N[C@H](C)c1cccc2ccccc12` [Example 360] showed an EC50 in the assay on SARS-CoV-2 replicon of 1000 to 10000 nM.

Take `N#CN1CC[C@@H](C(=O)NCc2ccccc2C(=O)NC2(c3cc(Br)cc4ccccc34)CC2)C1` [Example 416]: the EC50 with SARS-CoV-2 replicon is less than 1000 nM. Same read-out and setting: the figure for `N#CN1CC[C@H](C(=O)NCc2ccccc2C(=O)NC2(c3cc(Br)cc4ccccc34)CC2)C1` [Example 417] is less than 1000 nM. On to `COc1cc(C2(NC(=O)c3ccccc3CNC(=O)C(=O)NC/C=C/c3cnccn3)CC2)cc2cn(C3CC3)nc12` [Example 579], for which the IC50 in assay [1] was in the range of 100 to 1000 nM. Still for that read-out and setting: next, `O=C(NC/C=C/c1cnccn1)C(=O)NCc1ccccc1C(=O)NC1(c2ccc3ccccc3c2)CC1` [Example 580]: 100 to 1000 nM; `COc1cc(C2(NC(=O)c3ccccc3CNC(=O)C(=O)NC/C=C/c3ccccn3)CC2)cc2cn(C3CC3)nc12` [Example 581]: 100 to 1000 nM; `O=C(NC/C=C/c1nccs1)C(=O)NCc1ccccc1C(=O)NC1(c2ccc3ccccc3c2)CC1` [Example 583]: 100 to 1000 nM.

For orientation: IC50 means the concentration that gives 50% inhibition. A word on the EC50: it is the concentration at which the effect is half-maximal. Read a low EC50 as higher potency in that assay.
